We go through four compounds from BindingDB's records for doi:10.1124/mol.107.042622 (The Johns Hopkins University, 2008).

For the experiment, the target named is DNA-(apurinic or apyrimidinic site) endonuclease (Homo sapiens, UniProt P27695). As to the kind of experiment: High-Throughput Screening and IC50 Determinations. The settings on record: pH 7.5; 22 °C. As for the experimental part: The screening assay was performed using 384-well microtiter plate first spotted with test compounds. Then Ape1 in reaction buffer was added to each well. The reaction was initiated through the addition of substrate. After incubation, the final fluorescence was measured using a FLUOstar Optima plate reader (BMG Labtech GmbH, Offenburg, Germany) at excitation and emission wavelengths of 485 and 520 nm, respectively. IC50 analyses were carried out on the best hits by first plating 10-fold dilutions of each inhibitor onto 384-well plates. Using the initial rate values, percentage activity was calculated for each sample relative to a negative (DMSO only) control. The data were fitted to a sigmoidal dose-response model using Prism software (GraphPad Software, San Diego, CA).

As a reminder, the IC50 is the concentration that inhibits the measured activity by half. Read a high IC50 as weaker potency. By Ki is commonly meant a dissociation constant, usually derived from enzyme kinetics or from competition with a known ligand. A high value points to lower affinity.

Each structure is given as a SMILES string.

DNA-(apurinic or apyrimidinic site) endonuclease, sequence (P27695 whole entry): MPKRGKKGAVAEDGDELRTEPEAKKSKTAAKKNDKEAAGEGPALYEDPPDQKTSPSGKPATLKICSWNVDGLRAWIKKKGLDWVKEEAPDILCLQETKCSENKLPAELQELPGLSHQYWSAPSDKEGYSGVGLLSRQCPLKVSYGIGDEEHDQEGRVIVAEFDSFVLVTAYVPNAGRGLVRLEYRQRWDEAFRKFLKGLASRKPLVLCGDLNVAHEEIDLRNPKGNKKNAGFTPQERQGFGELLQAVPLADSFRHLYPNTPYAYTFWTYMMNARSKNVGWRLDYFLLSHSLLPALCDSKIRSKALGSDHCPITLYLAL

For the compound `O=C(O)c1cc[c]([Sb](=[O])([OH])[OH])cc1[N+](=O)[O-]` [4-[dihydroxy(oxo)--stibanyl]-2-nitrobenzoic acid], the IC50 was determined as 4 nM and the Ki amounted to 19 nM.
Turning to `O=C(O)/C=C/c1ccc[c]([Sb](=[O])([OH])[OH])c1` [(2E)-3-{3-[dihydroxy(oxo)--stibanyl]phenyl}prop-2-enoic acid], the IC50 is 200 nM.
`O=C(Nc1cc[c]([Sb](=[O])([OH])[OH])cc1)c1ccccc1` [N-{4-[dihydroxy(oxo)--stibanyl]phenyl}benzamide]: the IC50 worked out at 300 nM.
`CCOC(=O)CCCc1cc[c]([Sb](=[O])([OH])[OH])cc1` [ethyl 4-{4-[dihydroxy(oxo)--stibanyl]phenyl}butanoate] showed an IC50 of 17 nM and an inhibition constant Ki of 36 nM.
